Test results as given in patent publication US8710045B2, “Agents for preventing and treating disorders involving modulation of the ryanodine receptors” (The Trustees of Columbia University in the City of New York, priority 2004, dated 2014).
Like-named read-outs stand apart in the source and are kept apart here.

What was measured:
RyR1 = biological target: T1, RyR1 (Mus musculus, UniProt E9PZQ0); test: Analysis of ryanodine receptor complex from EDL after chronic exercise (immunoprecipitation, immunoblot); format: in vivo; conditions: chronic exercise protocol
T1 construct: RyR1 was immunoprecipitated from soleus muscle homogenates of mice following 21 days of exercise; from tissue; host or cells: mouse hind-limb skeletal muscle (soleus, EDL; SR microsomes for bilayer recording)
Method: Analysis of Ryanodine Receptor Complex: 10 mg muscle samples were isotonically lysed. […] The samples were incubated with protein A Sepharose beads (Amersham Pharmacia) at 4° C. for 1 h, after which the beads were washed three times with buffer. Proteins were separated on SDS-PAGE gels (4-20% gradient) and transferred onto nitrocellulose membranes overnight (SemiDry transfer blot, Bio-Rad). After incubation with blocking solution (LICOR Biosciences, Lincoln Nebr.) to prevent non-specific antibody binding and a wash in Tris-buffered saline with 0.1% Tween-20, membranes were incubated for 1-2 h at room temperature with primary antibodies anti-calstabin (1:2500 in blocking buffer), anti-RyR (5029, 1:5,000), or anti-phospho-RyR2-pSer2809 (1:5000), which detects PKA-phosphorylated mouse RyR1-pSer2844 and RyR2-pSer2808, anti-PDE4D3 (1:1000). After three washes, membranes were incubated with infrared labeled secondary antibodies (1:10,000 dilution, LICOR Biosystems). Band densities were quantified using the Odyssey Infrared Imaging System (LICOR Biosciences).

calpain = test: Calpain activity assay in EDL homogenates of chronically exercised mice; format: in vivo, mouse
Method: Calpain and Creatine Kinase Assays: Tissue calpain activities were measured using a calpain activity assay kit (Calbiochem, San Diego, Calif.) (FIG. 42B). This assay is based on the degradation of the fluorescent peptide substrate Suc-LLVY-AMC (Calbiochem). Muscle homogenates were diluted to a final concentration of 600 μg/ml and the calpain activity in the homogenate was determined as per manufactures instructions. Plasma creatine kinase (CK) activity was assayed using the regent kit from Pointe Scientific, Inc. (Canton, Mich.) (FIG. 42A). Plasma samples (duplicates, 5 μl each) were added to 200 μl of CK reagent and the change in absorbance at 340 nm was recorded over 4 minutes using a plate reader. The average absorbance change per minute was used to determine the CPK levels as per manufacturer's instructions.
Reduced calpain activation in muscle tissue and reduced muscle tissue damage due to calstabin1 rebinding: One possible mechanism by which calcium released by leaky RyR1 channels impairs exercise performance is the activation of a member of the calpain family of Ca^2+-dependent neutral proteases, which are known to be responsible for muscle damage in a number of pathophysiological states. […] Calpain activity in muscle homogenates was assessed by means of the degradation of the synthetic calpain substrate Suc-LLVY-AMC, which fluoresces upon cleavage by calpain.

RyR = test: Calstabin binding to RyR in brain after isoproterenol infusion (RyR immunoprecipitation, western blot)
Method: Tissue lysates were prepared by homogenizing the tissue (e.g., brain, cardiac, muscle) with Tissuemiser in 0.7 ml lysis buffer (pH 7.4, 10 mM HEPES, 1 mM EDTA, 20 mM NaF, 2 mM Na3 VO4, 320 mM sucrose, and protease inhibitors) and centrifuged for 15 min at 4,000×g at 4° C. The supernatant was then centrifuged for 15 min at 10,000×g at 4° C. For brain homogenates, the supernatant was centrifuged at 50,000×g at 4° C. for 30 minutes, and the pellet (microsomes) was resuspended in homogenization buffer which was supplemented with 0.9% NaCl. For brain tissue, the resuspended pellet was used for immunoprecipitation of RyR. For cardiac and muscle tissue homogenates, the supernatant of the 10,000×g spin was used for immunoprecipitation of the RyR. Protein concentrations were measured by Bradford protein assay. The sample was frozen at −80° C. until use.
100 μg of microsomes were brought to a volume of 500 μl with modified RIP A buffer (50 mM Tris-HCl (PH 7.4), 0.9% NaCl, 5.0 mM NaF, 1.0 mM Na3VO4, 0.5% TritonX100, and protease inhibitors). […]
Experiments were performed to determine whether the compounds described herein cross the blood brain barrier and enhance binding of cal stab in to ryanodine receptors in the brain. […] RyR was immunoprecipitated using an antibody to RyR, and the presence of calstabin in the immunoprecipitates was detected using an antibody to calstabin.

L-type Ca2+ channels = biological target: T2, L-type Ca2+ channels (Mus musculus, UniProt Q01815); test: L-type Ca2+ channel current, whole-cell patch clamp in isolated mouse cardiomyocytes; format: cell-based; conditions: Ba2+ as charge carrier
T2 construct: currents through L-type Ca^2+ channels in isolated mouse cardiomyocytes are recorded; endogenous in cells; host or cells: isolated mouse cardiomyocytes
Method: The final pellets are pooled and resuspended in imidazole buffer (final concentration≈10 μg/μl). […] Immunoblots are developed using an anti-FKBP antibody (1:3,000 dilution). The amount of rebinding is quantified using densitometry of Western blots and is compared to the amount of FKBP associated with RyR in non-phosphorylated SR. […] K2ATP, 5; HEPES, 10; aspartic acid, 50; pH 7.4 (CsOH). […] Drugs are applied by a local solution changer and reach the cell membrane within 1 s.

Wild-type mice = test: Chronic heart failure after myocardial infarction (LAD ligation) in wild-type mice; format: in vivo, mouse; conditions: plasma concentration 200 nM, vs placebo
Method: Wild-type mice are subjected to permanent ligation of the left anterior descending coronary artery resulting in myocardial infarction. Seven days following myocardial infartion, mice are treated with S36 (plasma concentration 200 nM) or placebo.

hERG = hERG (Homo sapiens, UniProt Q12809); test: hERG current, manual whole-cell patch clamp in hERG-transfected HEK 293 cells (Example 5); format: cell-based; parameters: expressed in transfected cells; host or cells: HEK 293; conditions: human, HEK 293 cells stably transfected with hERG cDNA
Chain of hERG (Q12809 whole entry, the tested form may be a part): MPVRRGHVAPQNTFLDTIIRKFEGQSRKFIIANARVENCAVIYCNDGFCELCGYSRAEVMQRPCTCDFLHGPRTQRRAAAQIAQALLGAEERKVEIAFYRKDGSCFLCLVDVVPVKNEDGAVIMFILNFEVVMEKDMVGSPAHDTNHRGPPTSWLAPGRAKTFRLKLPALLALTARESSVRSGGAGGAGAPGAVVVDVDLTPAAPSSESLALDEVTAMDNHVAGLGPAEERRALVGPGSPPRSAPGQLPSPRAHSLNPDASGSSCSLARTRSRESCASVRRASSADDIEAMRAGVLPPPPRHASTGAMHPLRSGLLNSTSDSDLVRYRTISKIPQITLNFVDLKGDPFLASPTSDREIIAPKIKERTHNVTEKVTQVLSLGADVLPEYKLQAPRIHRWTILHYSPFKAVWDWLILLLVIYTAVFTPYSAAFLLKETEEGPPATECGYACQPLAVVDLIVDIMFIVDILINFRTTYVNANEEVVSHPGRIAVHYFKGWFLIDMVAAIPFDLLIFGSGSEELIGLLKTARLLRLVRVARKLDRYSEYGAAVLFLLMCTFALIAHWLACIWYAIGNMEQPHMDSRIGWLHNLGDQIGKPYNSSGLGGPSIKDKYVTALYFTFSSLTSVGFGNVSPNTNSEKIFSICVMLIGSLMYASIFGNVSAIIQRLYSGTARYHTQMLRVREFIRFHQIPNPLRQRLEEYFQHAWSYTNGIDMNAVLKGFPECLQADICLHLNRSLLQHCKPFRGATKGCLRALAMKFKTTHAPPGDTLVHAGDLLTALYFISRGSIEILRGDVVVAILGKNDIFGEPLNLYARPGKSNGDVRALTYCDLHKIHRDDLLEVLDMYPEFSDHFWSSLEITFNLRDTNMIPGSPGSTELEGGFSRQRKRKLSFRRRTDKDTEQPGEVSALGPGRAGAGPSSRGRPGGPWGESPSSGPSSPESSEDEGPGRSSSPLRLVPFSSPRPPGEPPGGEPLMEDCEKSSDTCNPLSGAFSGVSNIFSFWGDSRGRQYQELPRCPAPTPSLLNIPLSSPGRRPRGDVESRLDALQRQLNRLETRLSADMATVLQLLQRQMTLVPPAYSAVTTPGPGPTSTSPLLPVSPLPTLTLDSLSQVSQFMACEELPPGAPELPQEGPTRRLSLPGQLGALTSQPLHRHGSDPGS
Method: (§1) Electrophysiological recordings (using the whole-cell patch clamp method) were performed at room temperature (18° C.-24° C.). Each cell acted as its own control. The effect of ARM0036 was evaluated at two concentrations: 10 and 100 μM. Each concentration was tested in at least three cells (n≧3). 90 nM Cisapride (commercially available from TOCRIS Bioscience) was used as a positive control for hERG blockade. For recording, cells were transferred to the recording chamber and superfused with vehicle control solution. The patch pipette solution for whole cell recording contained 130 mM potassium aspartate, 5 mM MgCl2, 5 mM EGTA, 4 mM ATP and 10 mM HEPES. The pH was adjusted to 7.2 with KOH. The pipette solution was prepared in batches, aliquoted, and stored frozen. A fresh aliquot was thawed and used each day. Patch pipettes were made from glass capillary tubing using a P-97 micropipette puller (Sutter Instruments, Novato, Calif.). A commercial patch clamp amplifier was used for whole cell recordings. Before digitization, current records were low-pass filtered at one-fifth of the sampling frequency.

hERG current = hERG current (Homo sapiens, UniProt Q12809); test: as above; format: cell-based; parameters: expressed in transfected cells; host or cells: HEK 293
Chain of hERG current (Q12809 whole entry): as the sequence (Q12809 whole entry, the tested form may be a part) above
Method: as §1

SMILES | Calstabin1 depletion from RyR1 (RyR1) | Calpain activity in EDL homogenates (calpain) | blood brain barrier penetration (RyR; mice) | in vivo binding of calstabin to RyR (RyR; mid-brain and cerebellum, after isoproterenol infusion for 5 days) | block of L-type Ca2+ channel current (ICa,L) (L-type Ca2+ channels) | Heart weight to body weight (HW/BW) ratio (Wild-type mice) | pressure-volume loop quantification (dP/dt) (Wild-type mice) | inhibition at 10 µM (hERG; 10 μM, read-out: Mean percent inhibition of hERG current) [%] | inhibition at 100 µM (hERG; 100 μM, read-out: Mean percent inhibition of hERG current) [%] | inhibition at 100 µM (hERG; highest concentration tested (100 μM), read-out: hERG current inhibition at the highest concentration tested) [%] | block of HERG K+ channel (IKr) (hERG current) | effect on hERG outward tail current (hERG current; 100 μM)
COc1ccc2c(c1)CN(C)CCS2 [S107] | nearly entirely reversed | significantly reduced | crosses the blood brain barrier | restores in vivo binding of calstabin to RyR |  |  |  |  |  |  |  | 
COc1ccc2c(c1)CN(C(=O)C(=O)O)CCS2 [S36] |  |  |  |  | does not block | reverse remodeling | improved cardiac contractility | 0.7 | 0.9 | < 50 | does not block | minimally reduced
